# Measurements reported in US9302999B2, “Substituted triazoles as herbicides” (E. I. DU PONT DE NEMOURS AND COMPANY, priority 2012, dated 2016).
# Key:
# [1] = tested on: crabgrass, large (large crabgrass, Digitaria sanguinalis); test: Test E pre-/postemergence: crabgrass, large; format: in vivo; details: Preemergence, scale 0 to 100
# Text: (§1) Seeds of plant species selected from corn (Zea mays), soybean (Glycine max), velvetleaf (Abutilon theophrasti), lambsquarters (Chenopodium album), poinsettia, wild (wild poinsettia, Euphorbia heterophylla), pigweed, palmer (palmer pigweed, Amaranthus palmeri), waterhemp (common waterhemp, Amaranthus rudis), smartweed (ladysthumb smartweed, Polygonum persicaria), surinam grass (Brachiaria decumbens), crabgrass, large (large crabgrass, Digitaria sanguinalis), crabgrass, Brazil (Brazilian crabgrass, Digitaria horizontalis), panicum, fall (fall panicum, Panicum dichotomiflorum), foxtail, giant (giant foxtail, Setaria faberii), foxtail, green (green foxtail, Setaria viridis), goosegrass (Eleusine indica), johnsongrass (Sorghum halepense), ragweed (common ragweed, Ambrosia elation), barnyardgrass (Echinochloa crus-galli), sandbur (southern sandbur, Cenchrus echinatus), arrowleaf sida (Sida rhombifolia), ryegrass, Italian (Italian ryegrass, Lolium multiflorum), dayflower, (VA) (Virginia dayflower, Commelina virginica), field bindweed (Convolvulus arvensis), cocklebur (common cocklebur, Xanthium strumarium), morningglory (Ipomoea coccinea), nightshade (eastern black nightshade, Solanum ptycanthum), kochia (Kochia scoparia), nutsedge, yellow (yellow nutsedge, Cyperus esculentus) and beggarticks (hairy beggarticks, Bidens pilosa) were planted into a silt loam soil and treated preemergence with test chemicals formulated in a non-phytotoxic solvent mixture which included a surfactant. At the same time, plants selected from these crop and weed species were planted in pots containing a growing medium comprising spaghnum peat moss, vermiculite, wetting agent and starter nutrients and treated with postemergence applications of some of the test chemicals formulated in the same manner. Plants ranged in height from 2 to 18 cm for postemergence treatments (1- to 4-leaf stage).
# (§2) Treated plants and controls were maintained in a greenhouse for 14 to 21 days, after which time all species were compared to controls and visually evaluated. Plant response ratings, summarized in Table E, are based on a scale of 0 to 100 where 0 is no effect and 100 is complete control. A dash (-) response means no test result.
# [2] = tested on: surinam grass (Brachiaria decumbens); test: Test E pre-/postemergence: surinam grass; format: in vivo; details: Preemergence, scale 0 to 100
# Text: as §1, §2
# [3] = tested on: lambsquarters (Chenopodium album); test: Test E pre-/postemergence: lambsquarters; format: in vivo; details: Preemergence, scale 0 to 100
# Text: as §1, §2
# [4] = tested on: kochia (Kochia scoparia); test: Test E pre-/postemergence: kochia; format: in vivo; details: Preemergence, scale 0 to 100
# Text: as §1, §2
# [5] = tested on: ryegrass, Italian (Italian ryegrass, Lolium multiflorum); test: Test F pre-/postemergence: ryegrass, Italian; format: in vivo
# Text: (§3) Seeds of plant species selected from corn (Zea mays), soybean (Glycine max), velvetleaf (Abutilon theophrasti), lambsquarters (Chenopodium album), poinsettia, wild (wild poinsettia, Euphorbia heterophylla), pigweed, palmer (palmer pigweed, Amaranthus palmeri), waterhemp (common waterhemp, Amaranthus rudis), surinam grass (Brachiaria decumbens), crabgrass, Brazil (Brazilian crabgrass, Digitaria horizontalis), panicum, fall (fall panicum Panicum dichotomiflorum), crabgrass, large (large crabgrass, Digitaria sanguinalis), foxtail, giant (giant foxtail, Setaria faberii), foxtail, green (green foxtail Setaria viridis), goosegrass (Eleusine indica), ragweed (common ragweed, Ambrosia elatior), barnyardgrass (Echinochloa crus-galli), sandbur (southern sandbur, Cenchrus echinatus), arrowleaf sida (Sida rhombifolia), ryegrass, Italian (Italian ryegrass, Lolium multiflorum), dayflower, VA (Virginia (VA) dayflower, Commelina virginica), field bindweed (Convolvulus arvensis), cocklebur (common cocklebur, Xanthium strumarium), morningglory (Ipomoea coccinea), nightshade (eastern black nightshade, Solanum ptycanthum), kochia (Kochia scoparia), nutsedge, yellow (yellow nutsedge, Cyperus esculentus), johnsongrass (Sorghum halepense), smartweed (ladysthumb smartweed, Polygonum persicaria), and beggarticks (hairy beggarticks, Bidens pilosa), were planted into a silt loam soil and treated preemergence with test chemicals formulated in a non-phytotoxic solvent mixture which included a surfactant. At the same time, plants selected from these crop and weed species and also pigweed (Amaranthus retroflexus), waterhemp_RES1 (ALS/Triazine resistant common waterhemp, Amaranthus rudis) and waterhemp_RES2 (ALS/HPPD resistant common waterhemp, Amaranthus rudis) were planted in pots containing a planting medium comprising spaghnum peat moss, vermiculite, wetting agent and starter nutrients treated with postemergence applications of some of the test chemicals formulated in the same manner. Plants ranged in height from 2 to 18 cm for postemergence treatments (1- to 4-leaf stage).
# as §2
# [6] = tested on: nightshade (eastern black nightshade, Solanum ptycanthum); test: Test F pre-/postemergence: nightshade; format: in vivo; details: Preemergence
# Text: as §3, §2
# [7] = tested on: arrowleaf sida (Sida rhombifolia); test: Test F pre-/postemergence: arrowleaf sida; format: in vivo
# Text: as §3, §2
# [8] = tested on: dayflower, VA (Virginia (VA) dayflower, Commelina virginica); test: Test F pre-/postemergence: dayflower, VA; format: in vivo
# Text: as §3, §2
# [9] = tested on: surinam grass (Brachiaria decumbens); test: Test F pre-/postemergence: surinam grass; format: in vivo; details: Preemergence
# Text: as §3, §2
# [10] = tested on: foxtail, green (green foxtail Setaria viridis); test: Test F pre-/postemergence: foxtail, green; format: in vivo; details: Preemergence
# Text: as §3, §2
# [11] = tested on: crabgrass, Brazil (Brazilian crabgrass, Digitaria horizontalis); test: Test F pre-/postemergence: crabgrass, Brazil; format: in vivo; details: Postemergence, scale 0 to 100
# Text: as §3, §2
# [12] = tested on: Waterhemp; test: Test C preemergence: waterhemp; format: in vivo, Amaranthus rudis; details: scale 0 to 100, 0 no effect, 100 complete control
# [13] = Preemergence, 16 g ai/ha, scale 0 to 100 (0 no effect, 100 complete control)
# [14] = Preemergence, 31 g ai/ha, scale 0 to 100 (0 no effect, 100 complete control)
# [15] = Preemergence, 125 g ai/ha, scale 0 to 100
# [16] = 16 g ai/ha, scale 0 to 100 (0 no effect, 100 complete control)
# [17] = 31 g ai/ha, scale 0 to 100 (0 no effect, 100 complete control)
# [18] = Preemergence, 62 g ai/ha, scale 0 to 100
# [19] = Postemergence, 8 g ai/ha, scale 0 to 100
# [20] = Postemergence, 16 g ai/ha, scale 0 to 100
# [21] = Postemergence, 31 g ai/ha, scale 0 to 100
# [22] = Postemergence, 62 g ai/ha, scale 0 to 100
# [23] = Postemergence, 125 g ai/ha, scale 0 to 100
compound,measurement,setting,value
"Cc1nn(-c2ccc(F)cc2)nc1Cc1ccnc(C(F)(F)F)c1 [Compound 16, 4-[[2-(4-fluorophenyl)-5-methyl-2H-1,2,3-triazol-4-yl]methyl]-2-(trifluoromethyl)pyridine]","Plant response rating: Crabgrass, Large",[1]; 8 g ai/ha,0
same,"Plant response rating: Crabgrass, Large",[1]; 16 g ai/ha,5
same,"Plant response rating: Crabgrass, Large",[1]; 31 g ai/ha,5
same,"Plant response rating: Crabgrass, Large",[1]; 62 g ai/ha,90
same,"Plant response rating: Crabgrass, Large",[1]; 125 g ai/ha,90
same,Plant response rating: Surinam Grass,[2]; 8 g ai/ha,0
same,Plant response rating: Surinam Grass,[2]; 16 g ai/ha,0
same,Plant response rating: Surinam Grass,[2]; 31 g ai/ha,0
same,Plant response rating: Surinam Grass,[2]; 62 g ai/ha,30
same,Plant response rating: Surinam Grass,[2]; 125 g ai/ha,35
same,Plant response rating: Lambsquarters,[3]; 8 g ai/ha,0
same,Plant response rating: Lambsquarters,[3]; 16 g ai/ha,0
same,Plant response rating: Lambsquarters,[3]; 31 g ai/ha,75
same,Plant response rating: Lambsquarters,[3]; 62 g ai/ha,98
same,Plant response rating: Lambsquarters,[3]; 125 g ai/ha,98
same,Plant response rating: Kochia,[4]; 8 g ai/ha,0
same,Plant response rating: Kochia,[4]; 16 g ai/ha,20
same,Plant response rating: Kochia,[4]; 31 g ai/ha,70
same,Plant response rating: Kochia,[4]; 62 g ai/ha,100
same,Plant response rating: Kochia,[4]; 125 g ai/ha,100
"Cc1nn(-c2ccc(C(F)(F)F)cc2)nc1Cc1ccnc(C(F)(F)F)c1 [Compound 47, 4-[[5-methyl-2-[4-(trifluoromethyl)phenyl]-2H-1,2,3-triazol-4-yl]methyl]-2-(trifluoromethyl)pyridine]","Plant response rating: Crabgrass, Large",[1]; 16 g ai/ha,20
same,"Plant response rating: Crabgrass, Large",[1]; 31 g ai/ha,75
same,"Plant response rating: Crabgrass, Large",[1]; 62 g ai/ha,100
same,"Plant response rating: Crabgrass, Large",[1]; 125 g ai/ha,100
same,"Plant response rating: Crabgrass, Large",[1]; 250 g ai/ha,100
same,Plant response rating: Surinam Grass,[2]; 16 g ai/ha,15
same,Plant response rating: Surinam Grass,[2]; 31 g ai/ha,20
same,Plant response rating: Surinam Grass,[2]; 62 g ai/ha,25
same,Plant response rating: Surinam Grass,[2]; 125 g ai/ha,40
same,Plant response rating: Surinam Grass,[2]; 250 g ai/ha,65
same,Plant response rating: Lambsquarters,[3]; 16 g ai/ha,95
same,Plant response rating: Lambsquarters,[3]; 31 g ai/ha,95
same,Plant response rating: Lambsquarters,[3]; 62 g ai/ha,98
same,Plant response rating: Lambsquarters,[3]; 125 g ai/ha,100
same,Plant response rating: Lambsquarters,[3]; 250 g ai/ha,100
same,Plant response rating: Kochia,[4]; 16 g ai/ha,25
same,Plant response rating: Kochia,[4]; 31 g ai/ha,35
same,Plant response rating: Kochia,[4]; 62 g ai/ha,100
same,Plant response rating: Kochia,[4]; 125 g ai/ha,100
same,Plant response rating: Kochia,[4]; 250 g ai/ha,100
"Cc1nn(-c2ccc(F)cc2)nc1Oc1ccnc(C(F)(F)F)c1 [Compound 129, 4-[[2-(4-fluorophenyl)-5-methyl-2H-1,2,3-triazol-4-yl]oxy]-2-(trifluoromethyl)pyridine]","Plant response rating: Crabgrass, Large",[1]; 8 g ai/ha,0
same,"Plant response rating: Crabgrass, Large",[1]; 16 g ai/ha,10
same,"Plant response rating: Crabgrass, Large",[1]; 31 g ai/ha,80
same,"Plant response rating: Crabgrass, Large",[1]; 62 g ai/ha,100
same,"Plant response rating: Crabgrass, Large",[1]; 125 g ai/ha,100
same,Plant response rating: Surinam Grass,[2]; 8 g ai/ha,0
same,Plant response rating: Surinam Grass,[2]; 16 g ai/ha,0
same,Plant response rating: Surinam Grass,[2]; 31 g ai/ha,15
same,Plant response rating: Surinam Grass,[2]; 62 g ai/ha,15
same,Plant response rating: Surinam Grass,[2]; 125 g ai/ha,60
same,Plant response rating: Lambsquarters,[3]; 8 g ai/ha,0
same,Plant response rating: Lambsquarters,[3]; 16 g ai/ha,0
same,Plant response rating: Lambsquarters,[3]; 31 g ai/ha,0
same,Plant response rating: Lambsquarters,[3]; 62 g ai/ha,75
same,Plant response rating: Lambsquarters,[3]; 125 g ai/ha,98
same,Plant response rating: Kochia,[4]; 8 g ai/ha,35
same,Plant response rating: Kochia,[4]; 16 g ai/ha,35
same,Plant response rating: Kochia,[4]; 31 g ai/ha,50
same,Plant response rating: Kochia,[4]; 62 g ai/ha,95
same,Plant response rating: Kochia,[4]; 125 g ai/ha,95
Fc1ccc(-n2nc(Cc3ccnc(C(F)(F)F)c3)c(OCC(F)(F)F)n2)cc1 [Compound 142],"Plant response rating, Ryegrass, Italian",[5]; [13],5
same,"Plant response rating, Ryegrass, Italian",[5]; [14],65
same,"Plant response rating, Ryegrass, Italian",[5]; [15],100
same,"Plant response rating, Nightshade",[6]; [16],65
same,"Plant response rating, Nightshade",[6]; [17],80
same,"Plant response rating, Nightshade","[6]; 125 g ai/ha, scale 0 to 100",98
same,"Plant response rating, Arrowleaf Sida",[7]; [13],0
same,"Plant response rating, Arrowleaf Sida",[7]; [14],30
same,"Plant response rating, Arrowleaf Sida",[7]; [18],30
same,"Plant response rating, Arrowleaf Sida",[7]; [15],35
same,"Plant response rating, Dayflower, VA",[8]; [13],0
same,"Plant response rating, Dayflower, VA",[8]; [14],5
same,"Plant response rating, Dayflower, VA",[8]; [18],50
same,"Plant response rating, Dayflower, VA",[8]; [15],70
same,"Plant response rating, Surinam Grass",[9]; [16],5
same,"Plant response rating, Surinam Grass",[9]; [17],5
same,"Plant response rating, Surinam Grass","[9]; 125 g ai/ha, scale 0 to 100",60
same,"Plant response rating, Foxtail, Green",[10]; [16],20
same,"Plant response rating, Foxtail, Green",[10]; [17],75
same,"Plant response rating, Foxtail, Green","[10]; 62 g ai/ha, scale 0 to 100",98
same,"Plant response rating, Foxtail, Green","[10]; 125 g ai/ha, scale 0 to 100",100
Cc1nn(-c2ccc(F)c(F)c2)nc1Oc1ccnc(C(F)(F)F)c1 [Compound 145],"Plant response rating, Ryegrass, Italian",[5]; [19],5
same,"Plant response rating, Ryegrass, Italian",[5]; [20],10
same,"Plant response rating, Ryegrass, Italian",[5]; [21],20
same,"Plant response rating, Ryegrass, Italian",[5]; [22],30
same,"Plant response rating, Ryegrass, Italian",[5]; [23],40
same,"Plant response rating, Arrowleaf Sida",[7]; [19],30
same,"Plant response rating, Arrowleaf Sida",[7]; [20],40
same,"Plant response rating, Arrowleaf Sida",[7]; [21],50
same,"Plant response rating, Arrowleaf Sida",[7]; [22],60
same,"Plant response rating, Arrowleaf Sida",[7]; [23],70
same,"Plant response rating, Dayflower, VA",[8]; [19],15
same,"Plant response rating, Dayflower, VA",[8]; [20],20
same,"Plant response rating, Dayflower, VA",[8]; [21],50
same,"Plant response rating, Dayflower, VA",[8]; [22],60
same,"Plant response rating, Dayflower, VA",[8]; [23],70
same,"Plant response rating, Crabgrass, Brazil",[11]; 8 g ai/ha,15
same,"Plant response rating, Crabgrass, Brazil",[11]; 16 g ai/ha,25
same,"Plant response rating, Crabgrass, Brazil",[11]; 31 g ai/ha,40
same,"Plant response rating, Crabgrass, Brazil",[11]; 62 g ai/ha,40
same,"Plant response rating, Crabgrass, Brazil",[11]; 125 g ai/ha,50
CCc1nn(-c2ccc(F)cc2)nc1Oc1ccnc(C(F)(F)F)c1 [Compound 166],"Plant response rating, Waterhemp",[12]; 125 g ai/ha,100
same,"Plant response rating, Waterhemp",[12]; 250 g ai/ha,100
